Test results as given in patent publication US20170107579A1, “E1 ENZYME MUTANTS AND USES THEREOF” (Millennium Pharmaceuticals, Inc., priority 2011, published 2017).
pIC50: −log10 of the molar value.

What was measured:
[1] = system: HCT-116 WT, HCT-116.1 A171T and HCT-116.4 C324Y cells; assay: Drug efflux inhibitor co-incubation, ATPlite viability assay; format: cell-based; conditions: co-treatment with MLN4924, 96 hours
Procedure: Treatment of cells with efflux inhibitors. FIG. 8A. […] Co-incubation studies were performed with various inhibitors of drug efflux at their highest non toxic concentration.
Diypridamole (Sigma), MK571 (Tocris), GF918, K0143 (Tocris) and LY5979 were obtained from commercial sources indicated.

[2] = molecular target: T1, UBA3 variant with A171T mutation (NAE) (Homo sapiens, UniProt Q8TBC4, A171T); assay: NAE HTRF assay, IC50 at KM for ATP (120 μM); format: biochemical
T1 construct: His; made in house; host or cells: E. coli Rosetta (DE3), co-expression
T1 sequence (Q8TBC4 whole entry A171T): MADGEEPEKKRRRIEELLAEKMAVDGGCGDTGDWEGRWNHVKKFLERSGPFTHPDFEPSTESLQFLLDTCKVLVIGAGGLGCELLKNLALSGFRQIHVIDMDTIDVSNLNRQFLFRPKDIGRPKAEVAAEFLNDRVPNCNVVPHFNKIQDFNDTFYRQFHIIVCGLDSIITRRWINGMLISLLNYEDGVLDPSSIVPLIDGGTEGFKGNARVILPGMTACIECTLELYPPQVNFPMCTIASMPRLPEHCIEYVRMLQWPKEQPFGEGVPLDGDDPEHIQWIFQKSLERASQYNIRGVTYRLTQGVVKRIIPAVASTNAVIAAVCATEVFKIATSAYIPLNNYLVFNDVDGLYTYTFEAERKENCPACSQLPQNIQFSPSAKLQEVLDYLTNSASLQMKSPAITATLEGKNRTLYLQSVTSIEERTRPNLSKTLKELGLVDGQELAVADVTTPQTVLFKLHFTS
T1 sequence (Q13564 whole entry partner): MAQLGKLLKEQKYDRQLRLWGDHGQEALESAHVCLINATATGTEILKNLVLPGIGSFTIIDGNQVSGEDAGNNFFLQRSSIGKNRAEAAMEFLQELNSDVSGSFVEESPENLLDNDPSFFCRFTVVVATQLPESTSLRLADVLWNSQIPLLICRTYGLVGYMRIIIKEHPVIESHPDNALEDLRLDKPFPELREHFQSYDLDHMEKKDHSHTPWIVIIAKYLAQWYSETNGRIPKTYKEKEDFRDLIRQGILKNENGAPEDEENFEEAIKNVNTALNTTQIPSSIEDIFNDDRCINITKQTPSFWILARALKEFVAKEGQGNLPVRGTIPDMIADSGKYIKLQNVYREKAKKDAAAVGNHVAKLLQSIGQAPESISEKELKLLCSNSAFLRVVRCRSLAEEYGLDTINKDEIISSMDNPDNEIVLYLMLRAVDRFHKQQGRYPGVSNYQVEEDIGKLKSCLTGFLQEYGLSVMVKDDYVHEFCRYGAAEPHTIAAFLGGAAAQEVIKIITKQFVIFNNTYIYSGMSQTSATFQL
T1 sequence (Q15843 1-76 partner limits assumed): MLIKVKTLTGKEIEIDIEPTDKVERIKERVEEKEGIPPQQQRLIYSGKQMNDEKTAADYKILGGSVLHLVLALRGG
Procedure: (§1) The enzyme reversibility assay was run in the FLAG-NEDD8-GST-UBC12 HTRF transthiolation assay described previously (Soucy et al., 2009, Brownell et al., 2010). Final concentrations of each enzyme after dilution were 10 pM WT NAEβ, 12.5 pM A171T NAEβ, 30 pM N209K NAEβ, and 33 pM E204K/G201V NAEβ.
(§2) IC50 measurements were performed in the HTRF assay described in Example 6. Assays for each enzyme were performed at their KM for ATP (20 μM for wild type, 120 μM for the A171T mutant).
(§3) An NAE enzymatic reaction totals 50 μL and contains 50 mM HEPES (pH 7.5), 0.05% BSA, 5 mM MgCl2, 20 μM ATP, 250 μM GSH, 0.01 μM UBC12-GST, 0.075 NEDD8-Flag and 0.28 nM recombinant human NAE enzyme. The enzymatic reaction mixture, with and without compound inhibitor, is incubated at 24° C. for 90 minutes in a 384-well plate before termination with 25 μL of Stop/Detection buffer (0.1M HEPES pH 7.5, 0.05% Tween20, 20 mM EDTA, 410 mM KF, 0.53 nM Europium-Cryptate labeled monoclonal anti-FLAG M2 antibody (CisBio International) and 8.125 μg/mL PHYCOLINK goat anti-GST allophycocyanin (XL-APC) antibody (Prozyme)). After incubation for 3 hours at 24° C., quantification of the FRET is performed on the Analyst™ HT 96.384 (Molecular Devices).

wild type UBA3 (NAE) = molecular target: T2, wild type UBA3 (NAE) (Homo sapiens, UniProt Q8TBC4); assay: NAE HTRF assay, IC50 at KM for ATP (20 μM); format: biochemical; conditions: read-out: NAE WT IC50
T2 construct: His; made in house; host or cells: E. coli Rosetta (DE3), co-expression
T2 sequence (Q8TBC4 whole entry): as the sequence (Q8TBC4 whole entry A171T) above, with T171A counted along it
T2 sequence (Q13564 whole entry partner): as the sequence (Q13564 whole entry partner) above
T2 sequence (Q15843 1-76 partner limits assumed): as the sequence (Q15843 1-76 partner limits assumed) above
Procedure: as §1, §2, §3

[3] = system: MLN4924 resistant HCT-116 cell clones; assay: Cell viability assay, 96 hours ATPlite, resistant clones; format: cell-based; conditions: HCT-116 resistant clones, 96 hours ATPlite
Procedure: HCT-116 cells and resistant clones were treated with DMSO or various concentrations of FIG. 7A. bortezomib, FIG. 7B. doxorubicin or FIG. 7C. SN-38 for 96 hours and cell viability was assessed with ATPlite assay.
Cell line cultures were maintained using appropriate cell culture media as recommended by ATCC and as previously reported (Soucy et al., 2009, Milhollen et al., 2010). […] Cell viability assays completed using 96 hours ATPlite assay (PerkinElmer) as previously reported (Soucy et al., 2009).

SMILES | sensitization of cells to MLN4924 by Pgp, BCRP and MRP2 inhibitors [1] | sensitivity of MLN4924 resistant clones to other chemotherapies [3] | further results
COc1cc2c(cc1OC)CN(CCc1ccc(NC(=O)c3cccc4c(=O)c5cccc(OC)c5[nH]c34)cc1)CC2 [GF120918] | did not sensitize | – | –
CNc1ncnc2c1ccn2C1CC(O)C(COS(N)(=O)=O)C1 (stereo not shown) [Compound I-40] | – | – | pIC50 ([2]; UBA3 A171T mutant, HTRF assay at KM for ATP, 120 μM): 6.20; A171T/WT ([2]; ratio of IC50 A171T mutant to IC50 wild type): 9; pIC50 (wild type UBA3 (NAE)): 7.14
CN(C)C(=O)CCSC(SCCC(=O)O)c1cccc(/C=C/c2ccc3ccc(Cl)cc3n2)c1 (stereo not shown) [MK519] | did not sensitize | – | –
CCc1c2c(nc3ccc(O)cc13)-c1cc3c(c(=O)n1C2)COC(=O)[C@]3(O)CC [SN-38] | – | remained sensitive | –
COc1cccc2c1C(=O)c1c(O)c3c(c(O)c1C2=O)C[C@@](O)(C(=O)CO)C[C@@H]3O[C@H]1C[C@H](N)[C@H](O)[C@H](C)O1 [doxorubicin] | – | remained sensitive | –
